Data from the supplement of paper PMC4862054.

Tests used:
Details in all cases: incubation time: 72 h
BT-474 [1] = test: normalised response (% of control), CellTiter-Glo; higher = more viable cells (100 = DMSO, 0 = benzethonium chloride kill control)
Procedure, shortened: (§1)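 After 72 h with compound in 384-well plates, breast cancer cell lines seeded as 20 µl suspension were read for CellTox Green fluorescence at 485/520 nm. CellTiter-Glo luminescence was then read after 10 min at room temperature. Compound was present at 5 concentrations in 10-fold steps over a 10,000-fold range set per compound, and plates were normalised to 0.1 % DMSO (100) and a positive kill control (0). Values are normalised signals, each at a single concentration.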

BT-549 [2] = test: as above
Procedure, shortened: as §1

CAL-120 [3] = test: as above
Procedure, shortened: as §1

CAL-148 [4] = test: as above
Procedure, shortened: as §1

CAL-51 [5] = test: as above
Procedure, shortened: as §1

CAL-85-1 [6] = test: as above
Procedure, shortened: as §1

DU-4475 [7] = test: as above
Procedure, shortened: as §1

HCC1143 [8] = test: as above
Procedure, shortened: as §1

HCC1599 [9] = test: as above
Procedure, shortened: as §1

HCC1937 [10] = test: as above
Procedure, shortened: as §1

HDQ-P1 [11] = test: as above
Procedure, shortened: as §1

Hs578T [12] = test: as above
Procedure, shortened: as §1

MCF-10A = test: as above
Procedure, shortened: as §1

MDA-MB-231 [13] = test: as above
Procedure, shortened: as §1

MDA-MB-436 [14] = test: as above
Procedure, shortened: as §1

MDA-MB-453 [15] = test: as above
Procedure, shortened: as §1

MDA-MB-468 [16] = test: as above
Procedure, shortened: as §1

MFM-223 [17] = test: as above
Procedure, shortened: as §1

SK-BR-3 [18] = test: as above
Procedure, shortened: as §1

BT-474 [19] = test: normalised viability (% of control), CellTiter-Blue; higher = more viable cells (100 = DMSO, 0 = benzethonium chloride kill control)
Description: (§2)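 DSRT, CellTiter-Blue viability, 72 h incubation. Signal is normalised to DMSO and benzethonium chloride controls. Value is the normalised response at dose 1.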

BT-549 [20] = test: as above
Description: as §2

CAL-120 [21] = test: as above
Description: as §2

CAL-148 [22] = test: as above
Description: as §2

CAL-51 [23] = test: as above
Description: as §2

CAL-85-1 [24] = test: as above
Description: as §2

DU-4475 [25] = test: as above
Description: as §2

HCC1143 [26] = test: as above
Description: as §2

HCC1599 [27] = test: as above
Description: as §2

HCC1937 [28] = test: as above
Description: as §2

HDQ-P1 [29] = test: as above
Description: as §2

Hs578T [30] = test: as above
Description: as §2

MDA-MB-231 [31] = test: as above
Description: as §2

MDA-MB-436 [32] = test: as above
Description: as §2

MDA-MB-453 [33] = test: as above
Description: as §2

MDA-MB-468 [34] = test: as above
Description: as §2

MFM-223 [35] = test: as above
Description: as §2

SK-BR-3 [36] = test: as above
Description: as §2

SMILES: Nc1nc(Cl)nc2c1ncn2[C@@H]1O[C@H](CO)[C@@H](O)[C@@H]1F [Clofarabine] (1 nM)
- normalised response (BT-474 [1]): 101%
- normalised response (BT-549 [2]): 94.8%
- normalised response (CAL-120 [3]): 101%
- normalised response (CAL-148 [4]): 90.5%
- normalised response (CAL-51 [5]): 79.9%
- normalised response (CAL-85-1 [6]): 97.4%
- normalised response (DU-4475 [7]): 99%
- normalised response (HCC1143 [8]): 96.7%
- normalised response (HCC1599 [9]): 90%
- normalised response (HCC1937 [10]): 98.1%
- normalised response (HDQ-P1 [11]): 98.3%
- normalised response (Hs578T [12]): 103%
- normalised response (MCF-10A): 107%
- normalised response (MDA-MB-231 [13]): 101%
- normalised response (MDA-MB-436 [14]): 97.4%
- normalised response (MDA-MB-453 [15]): 106%
- normalised response (MDA-MB-468 [16]): 94.9%
- normalised response (MFM-223 [17]): 101%
- normalised response (SK-BR-3 [18]): 99.1%
- normalised viability (BT-474 [19]): 89.5%
- normalised viability (BT-549 [20]): 93.7%
- normalised viability (CAL-120 [21]): 90.4%
- normalised viability (CAL-148 [22]): 91%
- normalised viability (CAL-51 [23]): 108%
- normalised viability (CAL-85-1 [24]): 87%
- normalised viability (DU-4475 [25]): 101%
- normalised viability (HCC1143 [26]): 87.1%
- normalised viability (HCC1599 [27]): 101%
- normalised viability (HCC1937 [28]): 93.7%
- normalised viability (HDQ-P1 [29]): 118%
- normalised viability (Hs578T [30]): 116%
- normalised viability (MDA-MB-231 [31]): 90.3%
- normalised viability (MDA-MB-436 [32]): 100%
- normalised viability (MDA-MB-453 [33]): 107%
- normalised viability (MDA-MB-468 [34]): 111%
- normalised viability (MFM-223 [35]): 93%
- normalised viability (SK-BR-3 [36]): 91%

SMILES: CCN(CC)CCOc1ccc(C(=C(Cl)c2ccccc2)c2ccccc2)cc1 [Clomifene] (1 nM)
- normalised response (BT-474 [1]): 106%
- normalised response (BT-549 [2]): 101%
- normalised response (CAL-120 [3]): 95.8%
- normalised response (CAL-148 [4]): 109%
- normalised response (CAL-51 [5]): 102%
- normalised response (CAL-85-1 [6]): 104%
- normalised response (DU-4475 [7]): 104%
- normalised response (HCC1143 [8]): 105%
- normalised response (HCC1599 [9]): 99.8%
- normalised response (HCC1937 [10]): 96.9%
- normalised response (HDQ-P1 [11]): 99.2%
- normalised response (Hs578T [12]): 101%
- normalised response (MCF-10A): 95.8%
- normalised response (MDA-MB-231 [13]): 106%
- normalised response (MDA-MB-436 [14]): 111%
- normalised response (MDA-MB-453 [15]): 106%
- normalised response (MDA-MB-468 [16]): 98.8%
- normalised response (MFM-223 [17]): 99.6%
- normalised response (SK-BR-3 [18]): 108%
- normalised viability (BT-474 [19]): 95.6%
- normalised viability (BT-549 [20]): 116%
- normalised viability (CAL-120 [21]): 90.2%
- normalised viability (CAL-148 [22]): 105%
- normalised viability (CAL-51 [23]): 94.5%
- normalised viability (CAL-85-1 [24]): 89%
- normalised viability (DU-4475 [25]): 92.8%
- normalised viability (HCC1143 [26]): 89.7%
- normalised viability (HCC1599 [27]): 79.7%
- normalised viability (HCC1937 [28]): 97.7%
- normalised viability (HDQ-P1 [29]): 125%
- normalised viability (Hs578T [30]): 123%
- normalised viability (MDA-MB-231 [31]): 104%
- normalised viability (MDA-MB-436 [32]): 111%
- normalised viability (MDA-MB-453 [33]): 102%
- normalised viability (MDA-MB-468 [34]): 103%
- normalised viability (MFM-223 [35]): 101%
- normalised viability (SK-BR-3 [36]): 96.7%

SMILES: C[C@@H]1C[C@H]2[C@@H]3CCC4=CC(=O)C=C[C@]4(C)[C@@]3(F)[C@@H](O)C[C@]2(C)[C@@]1(O)C(=O)CO [Dexamethasone] (1 nM)
- normalised response (BT-474 [1]): 107%
- normalised response (BT-549 [2]): 102%
- normalised response (CAL-120 [3]): 94.3%
- normalised response (CAL-148 [4]): 89.2%
- normalised response (CAL-51 [5]): 116%
- normalised response (CAL-85-1 [6]): 102%
- normalised response (DU-4475 [7]): 100%
- normalised response (HCC1143 [8]): 96.2%
- normalised response (HCC1599 [9]): 100%
- normalised response (HCC1937 [10]): 98.9%
- normalised response (HDQ-P1 [11]): 104%
- normalised response (Hs578T [12]): 107%
- normalised response (MCF-10A): 90%
- normalised response (MDA-MB-231 [13]): 112%
- normalised response (MDA-MB-436 [14]): 115%
- normalised response (MDA-MB-453 [15]): 102%
- normalised response (MDA-MB-468 [16]): 94.6%
- normalised response (MFM-223 [17]): 94.7%
- normalised response (SK-BR-3 [18]): 95.6%
- normalised viability (BT-474 [19]): 119%
- normalised viability (BT-549 [20]): 157%
- normalised viability (CAL-120 [21]): 82.3%
- normalised viability (CAL-148 [22]): 109%
- normalised viability (CAL-51 [23]): 95.6%
- normalised viability (CAL-85-1 [24]): 107%
- normalised viability (DU-4475 [25]): 96.6%
- normalised viability (HCC1143 [26]): 91.8%
- normalised viability (HCC1599 [27]): 84%
- normalised viability (HCC1937 [28]): 82%
- normalised viability (HDQ-P1 [29]): 92.9%
- normalised viability (Hs578T [30]): 93.5%
- normalised viability (MDA-MB-231 [31]): 126%
- normalised viability (MDA-MB-436 [32]): 85.8%
- normalised viability (MDA-MB-453 [33]): 94.3%
- normalised viability (MDA-MB-468 [34]): 106%
- normalised viability (MFM-223 [35]): 91.6%
- normalised viability (SK-BR-3 [36]): 111%

SMILES: CC(C)C(=O)Nc1ccc([N+](=O)[O-])c(C(F)(F)F)c1 [Flutamide] (1 nM)
- normalised response (BT-474 [1]): 98.5%
- normalised response (BT-549 [2]): 98.5%
- normalised response (CAL-120 [3]): 103%
- normalised response (CAL-148 [4]): 96.8%
- normalised response (CAL-51 [5]): 113%
- normalised response (CAL-85-1 [6]): 96.7%
- normalised response (DU-4475 [7]): 97%
- normalised response (HCC1143 [8]): 93.2%
- normalised response (HCC1599 [9]): 97.4%
- normalised response (HCC1937 [10]): 94.7%
- normalised response (HDQ-P1 [11]): 101%
- normalised response (Hs578T [12]): 98.2%
- normalised response (MCF-10A): 103%
- normalised response (MDA-MB-231 [13]): 99%
- normalised response (MDA-MB-436 [14]): 103%
- normalised response (MDA-MB-453 [15]): 113%
- normalised response (MDA-MB-468 [16]): 96%
- normalised response (MFM-223 [17]): 98.4%
- normalised response (SK-BR-3 [18]): 105%
- normalised viability (BT-474 [19]): 96.8%
- normalised viability (BT-549 [20]): 86.2%
- normalised viability (CAL-120 [21]): 93.6%
- normalised viability (CAL-148 [22]): 114%
- normalised viability (CAL-51 [23]): 109%
- normalised viability (CAL-85-1 [24]): 96.8%
- normalised viability (DU-4475 [25]): 100%
- normalised viability (HCC1143 [26]): 90.7%
- normalised viability (HCC1599 [27]): 119%
- normalised viability (HCC1937 [28]): 65.1%
- normalised viability (HDQ-P1 [29]): 118%
- normalised viability (Hs578T [30]): 134%
- normalised viability (MDA-MB-231 [31]): 90.2%
- normalised viability (MDA-MB-436 [32]): 94.7%
- normalised viability (MDA-MB-453 [33]): 104%
- normalised viability (MDA-MB-468 [34]): 96.1%
- normalised viability (MFM-223 [35]): 90.4%
- normalised viability (SK-BR-3 [36]): 98.1%
